Earlier results in US11007501B2, “Reduced permeability microcapsules” (Trucapsol LLC, priority 2018, dated 2021).

| Substance | Octanol/water Partition Coefficient (logP) |
| --- | --- |
| Nonalactone | 1.3 |
| Violiff | 2.11 |
